In patent publication US20240150298A1, “ANTIBACTERIAL COMPOUNDS” (Blacksmith Medicines, Inc., priority 2021, published 2024):
In brackets after ≈: the same amount, converted by molar mass. Read-outs that look alike come from different tables or passages of the source.

How the values were obtained:
Test in all cases: Bacterial susceptibility testing, MIC by broth microdilution (CLSI)
Type in all cases: cell-based
[1] = test system: P. aeruginosa ATCC27835; details: Pseudomonas aeruginosa
Protocol: (§1) Minimal inhibitory concentrations (MIC) were determined by the broth microdilution method in accordance with the Clinical and Laboratory Standards Institute (CLSI) guidelines. In brief, organism suspensions were adjusted to a final inoculum between 3×10^5 and 7×10^5 colony-forming units (CFU)/mL. Drug dilutions and inocula were made in sterile, cation adjusted Mueller-Hinton Broth (Beckton Dickinson). In wells, an inoculum volume of 100 μL was mixed to 2 μL of DMSO with 2-fold serial dilutions of drug. All inoculated microdilution trays were incubated in ambient air at 35° C. for 18-24 h. Following incubation, the lowest concentration of the drug that prevented visible growth (OD600 nm<0.05) was recorded as the MIC. Performance of the assay was monitored by the use of laboratory quality-control strains and compounds with defined MIC spectrum, in accordance with CLSI guidelines.

[2] = test system: E. coli ATCC25922; details: Escherichia coli
Protocol: as §1

[3] = test system: K. pneumoniae ATCC13883; details: Klebsiella pneumoniae
Protocol: as §1

[4] = test system: P. aeruginosa 209 PAO1; details: Pseudomonas aeruginosa
Protocol: as §1

[5] = ATCC27835, broth microdilution, 35° C., 18-24 h, read-out: MIC P. aeruginosa ATCC27835
[6] = ATCC25922, broth microdilution, 35° C., 18-24 h, read-out: MIC E. coli ATCC25922
[7] = ATCC13883, broth microdilution, 35° C., 18-24 h, read-out: MIC K. pneumoniae ATCC13883
[8] = PAO1, broth microdilution, 35° C., 18-24 h, read-out: MIC P. aeruginosa 209 PAO1
[9] = ATCC27835, read-out: MIC P. aeruginosa ATCC27835
[10] = ATCC25922, read-out: MIC E. coli ATCC25922
[11] = ATCC13883, read-out: MIC K. pneumoniae ATCC13883
[12] = PAO1, read-out: MIC P. aeruginosa 209 PAO1

SMILES	MIC [1, 5] [µg/mL]	MIC [2, 6] [µg/mL]	MIC [3, 7] [µg/mL]	MIC [4, 8] [µg/mL]	MIC [1, 9] [µg/mL]	MIC [2, 10] [µg/mL]	MIC [3, 11] [µg/mL]	MIC [4, 12] [µg/mL]
C[C@H](O)c1nccn1[C@@H](/C=C/c1ccc(-c2ccc(C3CC(C(=O)NCCO)C3)cc2)cc1)CO (stereo partly drawn) [Compound 49, 3-(4′-((S,E)-4-hydroxy-3-(2-((S)-1-hydroxyethyl)-1H-imidazol-1-yl)but-1-en-1-yl)-[1,1′-biphenyl]-4-yl)-N-(2-hydroxyethyl)cyclobutane-1-carboxamide]	2 (≈ 4.21 µM)	4 (≈ 8.41 µM)	4 (≈ 8.41 µM)	2 (≈ 4.21 µM)	–	–	–	–
C[C@H](O)c1nccn1[C@@H](/C=C/c1ccc(-c2ccc(C3CC(C(=O)NCc4ncon4)C3)cc2)cc1)CO (stereo partly drawn) [Compound 53, N-((1,2,4-oxadiazol-3-yl)methyl)-3-(4′-((S,E)-4-hydroxy-3-(2-((S)-1-hydroxyethyl)-1H-imidazol-1-yl)but-1-en-1-yl)-[1,1′-biphenyl]-4-yl)cyclobutane-1-carboxamide]	4 (≈ 7.79 µM)	0.5 (≈ 0.974 µM)	1 (≈ 1.95 µM)	2 (≈ 3.89 µM)	–	–	–	–
C[C@H](O)c1nccn1[C@@H](/C=C/c1ccc(-c2ccc(C3CC(C(=O)NCc4c[nH]cn4)C3)cc2)cc1)CO (stereo partly drawn) [Compound 55, N-((1H-imidazol-4-yl)methyl)-3-(4′-((S,E)-4-hydroxy-3-(2-((S)-1-hydroxyethyl)-1H-imidazol-1-yl)but-1-en-1-yl)-[1,1′-biphenyl]-4-yl)cyclobutane-1-carboxamide]	2 (≈ 3.91 µM)	0.5 (≈ 0.977 µM)	2 (≈ 3.91 µM)	2 (≈ 3.91 µM)	–	–	–	–
C[C@H](O)c1nccn1[C@@H](/C=C/c1ccc(-c2ccc(C3CC(CNCC#N)C3)cc2)cc1)CO (stereo partly drawn) [Compound 56, 2-(((3-(4′-((S,E)-4-hydroxy-3-(2-((S)-1-hydroxyethyl)-1H-imidazol-1-yl)but-1-en-1-yl)-[1,1′-biphenyl]-4-yl)cyclobutyl)methyl)amino) acetonitrile]	4 (≈ 8.76 µM)	0.25 (≈ 0.548 µM)	0.5 (≈ 1.1 µM)	2 (≈ 4.38 µM)	–	–	–	–
C[C@H](O)c1nccn1[C@@H](/C=C/c1ccc(-c2ccc(C3CC(CNC(C#N)CO)C3)cc2)cc1)CO (stereo partly drawn) [Compound 59, 3-hydroxy-2-(((3-(4′-((S,E)-4-hydroxy-3-(2-((S)-1-hydroxyethyl)-1H-imidazol-1-yl)but-1-en-1-yl)-[1,1′-biphenyl]-4-yl)cyclobutyl)methyl)amino)propane nitrile]	4 (≈ 8.22 µM)	2 (≈ 4.11 µM)	4 (≈ 8.22 µM)	2 (≈ 4.11 µM)	–	–	–	–
C[C@H](O)c1nccn1[C@@H](/C=C/c1ccc(-c2ccc([C@H]3C[C@H](NS(C)(=O)=O)C3)cc2)cc1)CO [Compound 62, N-((1S,3r)-3-(4′-((S,E)-4-hydroxy-3-(2-((S)-1-hydroxyethyl)-1H-imidazol-1-yl)but-1-en-1-yl)-[1,1′-biphenyl]-4-yl)cyclobutyl)methanesulfonamide]	–	–	–	–	2 (≈ 4.15 µM)	1 (≈ 2.08 µM)	0.5 (≈ 1.04 µM)	1 (≈ 2.08 µM)
C[C@H](O)c1nccn1[C@@H](/C=C/c1ccc(-c2ccc([C@H]3C[C@H](NC(=O)CS(C)(=O)=O)C3)cc2)cc1)CO [Compound 63, N-((1S,3r)-3-(4′-((S,E)-4-hydroxy-3-(2-((S)-1-hydroxyethyl)-1H-imidazol-1-yl)but-1-en-1-yl)-[1,1′-biphenyl]-4-yl)cyclobutyl)-2-(methylsulfonyl)acetamide]	–	–	–	–	4 (≈ 7.64 µM)	2 (≈ 3.82 µM)	4 (≈ 7.64 µM)	2 (≈ 3.82 µM)
C[C@H](O)c1nccn1[C@@H](/C=C/c1ccc(-c2ccc([C@H]3C[C@H](NC(=O)CO)C3)cc2)cc1)CO [Compound 64, 2-hydroxy-N-((1S,3r)-3-(4′-((S,E)-4-hydroxy-3-(2-((S)-1-hydroxyethyl)-1H-imidazol-1-yl)but-1-en-1-yl)-[1,1′-biphenyl]-4-yl)cyclobutyl)acetamide]	–	–	–	–	2 (≈ 4.33 µM)	1 (≈ 2.17 µM)	2 (≈ 4.33 µM)	1 (≈ 2.17 µM)

Now from value to compound, other results behind:

MIC [1, 5] [µg/mL]	MIC [2, 6] [µg/mL]	MIC [3, 7] [µg/mL]	MIC [4, 8] [µg/mL]	SMILES	MIC [1, 9] [µg/mL]	MIC [2, 10] [µg/mL]	MIC [3, 11] [µg/mL]	MIC [4, 12] [µg/mL]
2 (≈ 4.25 µM)	0.5 (≈ 1.06 µM)	1 (≈ 2.13 µM)	2 (≈ 4.25 µM)	C[C@H](O)c1nccn1[C@@H](/C=C/c1ccc(-c2ccc(C3CC(C(=O)NCC#N)C3)cc2)cc1)CO (stereo partly drawn) [Compound 50, N-(cyanomethyl)-3-(4′-((S,E)-4-hydroxy-3-(2-((S)-1-hydroxyethyl)-1H-imidazol-1-yl)but-1-en-1-yl)-[1,1′-biphenyl]-4-yl)cyclobutane-1-carboxamide]	–	–	–	–
4 (≈ 9.25 µM)	4 (≈ 9.25 µM)	8 (≈ 18.5 µM)	4 (≈ 9.25 µM)	C[C@H](O)c1nccn1[C@@H](/C=C/c1ccc(-c2ccc(C3CC(C(=O)O)C3)cc2)cc1)CO (stereo partly drawn) [Compound 51, 3-(4′-((S,E)-4-hydroxy-3-(2-((S)-1-hydroxyethyl)-1H-imidazol-1-yl)but-1-en-1-yl)-[1,1′-biphenyl]-4-yl)cyclobutane-1-carboxylic acid]	–	–	–	–
4 (≈ 7.91 µM)	4 (≈ 7.91 µM)	16 (≈ 31.6 µM)	4 (≈ 7.91 µM)	C[C@H](O)c1nccn1[C@@H](/C=C/c1ccc(-c2ccc(C3CC(C(=O)NCC(O)CO)C3)cc2)cc1)CO (stereo partly drawn) [Compound 52, N-(2,3-dihydroxypropyl)-3-(4′-((S,E)-4-hydroxy-3-(2-((S)-1-hydroxyethyl)-1H-imidazol-1-yl)but-1-en-1-yl)-[1,1′-biphenyl]-4-yl)cyclobutane-1-carboxamide]	–	–	–	–
4 (≈ 7.8 µM)	0.5 (≈ 0.975 µM)	1 (≈ 1.95 µM)	2 (≈ 3.9 µM)	C[C@H](O)c1nccn1[C@@H](/C=C/c1ccc(-c2ccc(C3CC(C(=O)NCc4cocn4)C3)cc2)cc1)CO (stereo partly drawn) [Compound 54, 3-(4′-((S,E)-4-hydroxy-3-(2-((S)-1-hydroxyethyl)-1H-imidazol-1-yl)but-1-en-1-yl)-[1,1′-biphenyl]-4-yl)-N-(oxazol-4-ylmethyl)cyclobutane-1-carboxamide]	–	–	–	–
4 (≈ 7.37 µM)	0.25 (≈ 0.461 µM)	1 (≈ 1.84 µM)	4 (≈ 7.37 µM)	C[C@H](O)c1nccn1[C@@H](/C=C/c1ccc(-c2ccc(C3CC(CNCc4noc(C(N)=O)n4)C3)cc2)cc1)CO (stereo partly drawn) [Compound 57, 3-((((3-(4′-((S,E)-4-hydroxy-3-(2-((S)-1-hydroxyethyl)-1H-imidazol-1-yl)but-1-en-1-yl)-[1,1′-biphenyl]-4-yl)cyclobutyl)methyl)amino)methyl)-1,2,4-oxadiazole-5-carboxamide]	–	–	–	–
8 (≈ 14.9 µM)	1 (≈ 1.87 µM)	2 (≈ 3.73 µM)	4 (≈ 7.47 µM)	C[C@H](O)c1nccn1[C@@H](/C=C/c1ccc(-c2ccc(C3CC(CN4CC(S(C)(=O)=O)C4)C3)cc2)cc1)CO (stereo partly drawn) [Compound 58, (S,E)-2-(2-((S)-1-hydroxyethyl)-1H-imidazol-1-yl)-4-(4′-(3-((3-(methylsulfonyl)azetidin-1-yl)methyl)cyclobutyl)-[1,1′-biphenyl]-4-yl)but-3-en-1-ol]	–	–	–	–
4 (≈ 8.14 µM)	8 (≈ 16.3 µM)	16 (≈ 32.5 µM)	4 (≈ 8.14 µM)	C[C@H](O)c1nccn1[C@@H](/C=C/c1ccc(-c2ccc(C3CC(CNCC(O)CO)C3)cc2)cc1)CO (stereo partly drawn) [Compound 60, 3-(((3-(4′-((S,E)-4-hydroxy-3-(2-((S)-1-hydroxyethyl)-1H-imidazol-1-yl)but-1-en-1-yl)-[1,1′-biphenyl]-4-yl)cyclobutyl)methyl)amino) propane-1,2-diol]	–	–	–	–
4 (≈ 8.67 µM)	2 (≈ 4.33 µM)	8 (≈ 17.3 µM)	4 (≈ 8.67 µM)	C[C@H](O)c1nccn1[C@@H](/C=C/c1ccc(-c2ccc(C3CC(CNCCO)C3)cc2)cc1)CO (stereo partly drawn) [Compound 61, (S,E)-2-(2-((S)-1-hydroxyethyl)-1H-imidazol-1-yl)-4-(4′-(3-(((2-hydroxyethyl)amino)methyl)cyclobutyl)-[1,1′-biphenyl]-4-yl) but-3-en-1-ol]	–	–	–	–
